# Read-outs that look alike come from different tables or passages of the source.
# Experiments:
# ALS patients [1] = assay: Fasudil treatment of patients with disease onset at least 24 months prior to treatment; format: in vivo, human
# From the text: This could not have been predicted from the trials with edaravone, above. […] (Liu 2016). The invention is based on the surprising discovery that orally-administered fasudil can treat ALS patients with disease onset of about two years or more prior treatment. These patients include but are not limited to patients with more advanced disease, but also includes slow-progressing patients.
# [2] = system: ALS disease onset of between 3 and 36 months; conditions: 30 mg, twice a day, 6-month study; cited from earlier work
# human ALS patients = conditions: 30 mg intravenously twice daily over 20 consecutive working days; cited from earlier work
# [3] = in vivo, 1-hydroxy (M3) metabolite; cited from earlier work
# ALS patients [4] = conditions: patients diagnosed two years or less; cited from earlier work
# severe ALS patients = conditions: disease onset of less than three years; cited from earlier work
# ALS patients [5] = conditions: enrollment of three years or less; cited from earlier work
smiles,measurement,setting,value
"Cl.O=S(=O)(c1cccc2cnccc12)N1CCCNCC1 [Fasudil, Hexahydro-1-(5-isoquinolinesulfonyl)-1H-1,4-diazepine monohydrochloride hemihydrate]",benefit from treatment,ALS patients [1],benefitted
same,disease modification,[2],did not result in any disease modification
same,outcome of compassionate use,human ALS patients,no conclusive results beyond safety
"O=S(=O)(c1cccc2c(O)nccc12)N1CCCNCC1 [M3, hydroxyfasudil]",half-life,[3],about 8 hours
CC1=NN(c2ccccc2)C(=O)C1 [edaravone],primary endpoint,ALS patients [4],met the primary endpoint
same,treatment effect between placebo and edaravone,severe ALS patients,failed to demonstrate any treatment effect
same,primary endpoint,ALS patients [5],did not meet the primary endpoint

# Reference: patent publication US20260014167A1, “Treating Amyotrophic Lateral Sclerosis Having Onset 24 Months Prior to Treatment” (Woolsey Pharmaceuticals, Inc., priority 2022, published 2026)
